The nature of the experiment: Displacement of [3H]naltrindole from Opioid receptor delta 1 of guinea pig brain membranes.
`C[C@H]1C2Cc3ccc(C(=O)Nc4ccccc4)cc3[C@@]1(C)CCN2CC1CC1` [3-cyclopropylmethyl-6,11-dimethyl-1,2,3,4,5,6-hexahydro-2,6-methano-benzo[d]azocine-8-carboxylic acid phenylamide] came in with an inhibition constant Ki of 1400 nM. In the case of `C[C@H]1C2Cc3ccc(C#N)cc3[C@@]1(C)CCN2CC1CC1` [(6S,11R)-3-Cyclopropylmethyl-6,11-dimethyl-1,2,3,4,5,6-hexahydro-2,6-methano-benzo[d]azocine-8-carbonitrile], affinity was put at a Ki of 2700 nM.

`C[C@@H]1[C@@H]2Cc3ccc(C(N)=O)cc3[C@]1(C)CCN2CC1CC1` [(6S,11R)-3-Cyclopropylmethyl-6,11-dimethyl-1,2,3,4,5,6-hexahydro-2,6-methano-benzo[d]azocine-8-carboxylic acid amide] registered an inhibition constant (Ki) of 570 nM. To `C[C@H]1[C@H]2Cc3ccc(C(N)=O)cc3[C@@]1(C)CCN2CC1CC1` [(6S,11R)-3-Cyclopropylmethyl-6,11-dimethyl-1,2,3,4,5,6-hexahydro-2,6-methano-benzo[d]azocine-8-carboxylic acid amide] belongs 2.6 nM. Take `C[C@H]1C2Cc3ccc(C(=O)N(C)C)cc3[C@@]1(C)CCN2CC1CC1` [(6S,11R)-3-Cyclopropylmethyl-6,11-dimethyl-1,2,3,4,5,6-hexahydro-2,6-methano-benzo[d]azocine-8-carboxylic acid dimethylamide]: the Ki was greater than 35000 nM. For `COC(=O)c1ccc2c(c1)[C@@]1(C)CCN(CC3CC3)C(C2)[C@@H]1C` [(6S,11R)-3-Cyclopropylmethyl-6,11-dimethyl-1,2,3,4,5,6-hexahydro-2,6-methano-benzo[d]azocine-8-carboxylic acid methyl ester], affinity was put at a Ki of 59 nM. On to `CNC(=O)c1ccc2c(c1)[C@@]1(C)CCN(CC3CC3)C(C2)[C@@H]1C` [(6S,11R)-3-Cyclopropylmethyl-6,11-dimethyl-1,2,3,4,5,6-hexahydro-2,6-methano-benzo[d]azocine-8-carboxylic acid methylamide], for which the affinity corresponds to a Ki of 63 nM.

`C[C@H]1C2Cc3ccc(C(=O)O)cc3[C@@]1(C)CCN2CC1CC1` [(6S,11R)-3-Cyclopropylmethyl-6,11-dimethyl-1,2,3,4,5,6-hexahydro-2,6-methano-benzo[d]azocine-8-carboxylic acid] came in with an inhibitory constant (Ki) of 320 nM.
